This is an account of results in paper PMC12136442, “Cholesterol metabolism and intrabacterial potassium homeostasis are intrinsically related in Mycobacterium tuberculosis” (PLOS Pathogens, 2025).

One assay has as its target T1, MceG (Mycobacterium tuberculosis, UniProt P9WQL5).
T1 construct: gene mkl

The target of assay [1] is T2, CeoB (Mycobacterium tuberculosis, UniProt Q7D6R7).
The target of assay [2] is T2, CeoB. The source holds these as a separate data set.

T2 sequence (Q7D6R7 entry or part of it): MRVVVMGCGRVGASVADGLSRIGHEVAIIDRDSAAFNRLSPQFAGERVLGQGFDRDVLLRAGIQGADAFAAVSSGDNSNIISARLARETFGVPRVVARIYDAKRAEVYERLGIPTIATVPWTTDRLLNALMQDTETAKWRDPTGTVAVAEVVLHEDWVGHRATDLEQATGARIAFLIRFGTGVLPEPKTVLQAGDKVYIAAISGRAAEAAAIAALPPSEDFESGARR
T1 sequence (P9WQL5 whole entry): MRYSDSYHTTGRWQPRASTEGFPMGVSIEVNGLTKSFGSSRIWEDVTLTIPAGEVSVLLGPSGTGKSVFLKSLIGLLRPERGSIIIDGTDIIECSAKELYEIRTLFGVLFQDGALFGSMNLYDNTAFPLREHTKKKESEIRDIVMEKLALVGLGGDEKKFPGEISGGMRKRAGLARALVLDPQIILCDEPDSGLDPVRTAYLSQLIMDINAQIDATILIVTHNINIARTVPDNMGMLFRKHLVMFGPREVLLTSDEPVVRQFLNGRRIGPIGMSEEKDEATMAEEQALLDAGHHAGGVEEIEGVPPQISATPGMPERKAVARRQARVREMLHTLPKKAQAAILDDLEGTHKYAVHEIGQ

For `Nc1ncnc2c1ncn2[C@@H]1O[C@H](COP(=O)(O)OP(=O)(O)OP(=O)(O)O)[C@@H](O)[C@H]1O` [ATP], the “ADP-Glo kinase assay (luminescence)” value at MceG is on record as “purified MceG exhibited ATPase activity”.

With `CC(C)CCC[C@@H](C)[C@H]1CC[C@H]2[C@@H]3CC=C4C[C@@H](O)CC[C@]4(C)[C@H]3CC[C@]12C` [cholesterol], the “band intensity at 65oC/50oC” value on CeoB [1] is “the presence of cholesterol resulted in an increase in CeoB thermostability”.

As for `CC(C)[C@@H](C)/C=C/[C@@H](C)[C@H]1CC[C@H]2C3=CC=C4C[C@@H](O)CC[C@]4(C)C3=CC[C@]12C` [dehydroergosterol, ergosta-5,7,9(11),22-tetraen-3β-ol], the “DHE fluorescence increase (ex 338 nm, em 381 nm)” value on CeoB [2] is listed as “incubation of CeoB with DHE resulted in significantly higher DHE fluorescence signal”.
